pKi: −log10 of the molar value.
Experiments:
MT1 receptor = MT1 receptor (Homo sapiens, UniProt P48039); assay: Melatonin MT1 receptor binding study; conditions: 2-[125I]-iodomelatonin radioligand, competitive binding in triplicate
Method: (§1) The MT1 or MT2 receptor binding experiments are carried out using 2-[^125I]-iodomelatonin as reference radioligand. The radioactivity retained is determined using a liquid scintillation counter.
(§2) Competitive binding experiments are then carried out in triplicate using the various test compounds. A range of different concentrations is tested for each compound. The results enable the binding affinities of the compounds tested (Ki) to be determined.

MT2 receptor = target: T1, MT2 receptor (Homo sapiens, UniProt P49286); assay: Melatonin MT2 receptor binding study; conditions: 2-[125I]-iodomelatonin radioligand, competitive binding in triplicate
T1 sequence (P49286 1-362): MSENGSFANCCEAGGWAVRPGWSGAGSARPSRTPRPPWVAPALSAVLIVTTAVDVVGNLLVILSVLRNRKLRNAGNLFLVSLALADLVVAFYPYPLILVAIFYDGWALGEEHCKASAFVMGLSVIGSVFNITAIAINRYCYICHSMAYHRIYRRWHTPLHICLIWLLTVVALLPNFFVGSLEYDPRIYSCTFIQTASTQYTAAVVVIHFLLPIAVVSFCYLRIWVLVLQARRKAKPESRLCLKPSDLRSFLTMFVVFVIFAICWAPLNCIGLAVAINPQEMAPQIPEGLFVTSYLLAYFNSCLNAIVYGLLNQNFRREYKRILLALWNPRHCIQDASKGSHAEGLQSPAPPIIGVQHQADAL
Method: as §1, §2

Sequence of MT1 receptor (P48039 whole entry): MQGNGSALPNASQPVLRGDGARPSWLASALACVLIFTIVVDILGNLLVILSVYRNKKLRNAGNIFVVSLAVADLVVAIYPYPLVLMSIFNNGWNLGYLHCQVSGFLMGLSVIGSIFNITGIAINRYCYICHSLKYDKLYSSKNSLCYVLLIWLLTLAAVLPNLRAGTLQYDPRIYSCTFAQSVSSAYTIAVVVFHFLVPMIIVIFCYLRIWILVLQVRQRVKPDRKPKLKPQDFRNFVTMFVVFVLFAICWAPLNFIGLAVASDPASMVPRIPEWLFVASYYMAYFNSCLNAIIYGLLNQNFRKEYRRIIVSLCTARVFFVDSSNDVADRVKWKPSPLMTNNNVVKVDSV

pKi (MT1 receptor): 8.85
pKi (MT2 receptor): 8.49
SMILES: CCC(=O)NCC(CO)c1cccc2ccc(OC)cc12 (centres unmarked) [Example 1, N-[3-Hydroxy-2-(7-methoxy-1-naphthyl)propyl]propanamide]
